ChEMBL document CHEMBL4177528, “Recent developments in drug discovery against the protozoal parasites Cryptosporidium and Toxoplasma” (Bioorg Med Chem Lett, 2017)

Key:
Toxoplasma gondii [1] = assay: Antiparasitic activity against Toxoplasma gondii after 4 days by chlorophenol red-beta-D-galactosidase based assay; format: functional, organism-based; conditions: 96 h
Cryptosporidium parvum = assay: Antiparasitic activity against Cryptosporidium parvum infected in human HCT8 cells incubated for 24 hrs post 3 hrs infection by Hoechst 33258 staining based epifluorescence microscopy; format: functional
Toxoplasma gondii [2] = assay: Antiparasitic activity against tachyzoite stage of Toxoplasma gondii RH infected in Swiss Webster mouse assessed as mouse survival for 60 days post infection; format: functional
Toxoplasma gondii [3] = assay: Antiparasitic activity against tachyzoite stage of Toxoplasma gondii infected in LLC-MK2 cells after 6 hrs; format: functional
Toxoplasma gondii [4] = assay: Antiparasitic activity against Toxoplasma gondii assessed as population with apicoplast loss after 4 days by Hoechst staining based microscopy; format: functional

Row | Structure (SMILES) | IC50 (Toxoplasma gondii [1]) | Survival (Toxoplasma gondii [2]) | also measured
1 | c1ccc2ncccc2c1 [QUINOLINE] | 5 to 6 µM |  | 
2 | Oc1cccc2cccnc12 [OXYQUINOLINE] | 0.213 µM |  | 
3 | O=[N+]([O-])c1cccc2ncccc12 | 5 to 6 µM |  | 
4 | Cc1cccc(-n2ncc3c(O)nc(-n4nc(C)cc4NC(=O)c4cc5ccccc5o4)nc32)c1 |  |  | Activity (Cryptosporidium parvum): 0.12 µM
5 | O=C(O)c1cn(C2CC2)c2cc(N3CCN(CC45CC6CC(CC(C6)C4)C5)CC3)c(F)cc2c1=O |  | 13 - 25% | 
6 | O=C1C2=C(C(=O)c3ccccc31)[C@H]1Oc3ccc(Br)cc3[C@H]1CO2 |  |  | Activity (Toxoplasma gondii [3]): <1 µM
7 | CCOC(=O)c1cn(C2CC2)c2cc(N3CCN(Cc4ccccc4)CC3)c(F)cc2c1=O |  | 13 - 25% | 
8 | FC(F)(F)c1ccc2c(NCCCN3CCN(c4cccc5nc(Cl)ccc45)CC3)ccnc2c1 | 0.425 µM |  | Activity (Toxoplasma gondii [4]): 40 - 45%
9 | COc1cccc(C(=O)NC(c2ccc(C)cc2)c2cc(Cl)c3cccnc3c2O)c1 (centres undefined) |  |  | Activity (Cryptosporidium parvum): 0.054 µM
10 | O=C(O)c1cn(C2CC2)c2cc(N3CCNCC3)c(F)cc2c1=O [CIPROFLOXACIN] |  | 13 - 25% | 
11 | Clc1ccc2ccccc2n1 | 5 to 6 µM |  | 
12 | [O-][n+]1cccc2ccccc21 | 5 to 6 µM |  | 
13 | CCOC(=O)c1cn(C2CC2)c2cc(N3CCNCC3)c(F)cc2c1=O [CIPROFLOXACIN ETHYL ESTER] |  | 13 - 25% | 
